Measurements published in PMC10231839, “A glycan receptor kinase facilitates intracellular accommodation of arbuscular mycorrhiza and symbiotic rhizobia in the legume Lotus japonicus” (PLOS Biology, 2023).

Experiments:
EPR3a ectodomain = biological target: T1, EPR3a ectodomain (Lotus japonicus, UniProt Z9OTA2OEF3); assay: microscale thermophoresis; format: binding; settings: PBS pH 7.4, 500 mM NaCl, 0.01% Tween20, RT, labelled protein
T1 construct: ectodomain residues 25-223; native signal peptide replaced by AcGP67 signal peptide; non-cleavable C-terminal 6xHis; Sf9 insect cells; PNGase F trimmed and BLUE-NHS labelled for MST
T1 sequence (Z9OTA2OEF3 25-223): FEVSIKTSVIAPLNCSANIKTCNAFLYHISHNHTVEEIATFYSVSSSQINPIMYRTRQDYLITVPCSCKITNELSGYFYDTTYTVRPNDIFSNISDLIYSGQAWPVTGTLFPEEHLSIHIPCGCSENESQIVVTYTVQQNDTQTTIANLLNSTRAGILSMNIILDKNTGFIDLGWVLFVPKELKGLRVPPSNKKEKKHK

[1] = biological target: T2, EPR3a intracellular kinase domain (Lotus japonicus, UniProt Z9OTA2OEF3); assay: autophosphorylation, SDS-PAGE with Pro-Q Diamond stain; format: biochemical; settings: 20 μM ATP, 10 mM MgCl2, pH 8.0, 1 h
T2 construct: intracellular kinase domain residues 255-615; E. coli Rosetta 2; His10-Arg7-SUMO tag cut by 3C protease; lambda-phosphatase dephosphorylated
T2 sequence (Z9OTA2OEF3 255-615): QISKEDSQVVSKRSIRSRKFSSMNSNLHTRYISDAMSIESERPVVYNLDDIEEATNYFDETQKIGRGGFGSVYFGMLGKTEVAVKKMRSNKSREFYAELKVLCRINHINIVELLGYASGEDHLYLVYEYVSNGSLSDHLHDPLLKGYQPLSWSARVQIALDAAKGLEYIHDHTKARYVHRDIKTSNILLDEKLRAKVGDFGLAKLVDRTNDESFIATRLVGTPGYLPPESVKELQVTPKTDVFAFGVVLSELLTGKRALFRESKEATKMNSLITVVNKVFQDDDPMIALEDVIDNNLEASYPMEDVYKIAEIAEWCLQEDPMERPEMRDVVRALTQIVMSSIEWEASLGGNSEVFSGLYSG

[2] = biological target: T3, EPR3 intracellular kinase domain (Lotus japonicus, UniProt D3KU53); assay: as above; format: biochemical; settings: 20 μM ATP, 10 mM MgCl2, pH 8.0, 1 h
T3 construct: gene LYS3; intracellular kinase domain residues 259-620; E. coli Rosetta 2; His10-Arg7-SUMO tag cut by 3C protease; lambda-phosphatase dephosphorylated
T3 sequence (D3KU53 entry or part of it): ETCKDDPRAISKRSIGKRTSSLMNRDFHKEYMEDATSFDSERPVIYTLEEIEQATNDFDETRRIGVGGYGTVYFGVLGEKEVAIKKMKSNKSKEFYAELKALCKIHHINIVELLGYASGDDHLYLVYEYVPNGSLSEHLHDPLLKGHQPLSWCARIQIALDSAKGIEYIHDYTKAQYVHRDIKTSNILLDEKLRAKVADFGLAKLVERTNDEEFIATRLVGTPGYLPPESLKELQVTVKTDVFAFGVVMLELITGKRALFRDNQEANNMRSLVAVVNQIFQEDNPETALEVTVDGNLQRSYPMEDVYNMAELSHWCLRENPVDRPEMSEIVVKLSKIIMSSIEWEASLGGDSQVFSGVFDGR

| Kd (EPR3a ectodomain) [µM] | Compound | also measured |
| --- | --- | --- |
| – | S. indica β-1,3/β-1,6 decasaccharide | Kd (EPR3a ectodomain; first (high-affinity) of two binding events): 51 ± 23 µM |
| 937 ± 389 | S. meliloti EPS | – |
| 12.5 ± 4 | R. leguminosarum EPS | – |
| ~850 | OC[C@H]1O[C@@H](O[C@@H]2[C@@H](O)[C@H](O[C@@H]3[C@@H](O)[C@H](O[C@@H]4[C@@H](O)[C@H](O[C@H]5[C@H](O)[C@@H](CO)OC(O)[C@@H]5O)O[C@H](CO)[C@H]4O)O[C@H](CO)[C@H]3O)O[C@H](CO)[C@H]2O)[C@H](O)[C@@H](O)[C@@H]1O (some centres unmarked) [laminaripentaose] | – |
| 44.4 ± 11.2 | M. loti EPS | – |
| – | Nc1ncnc2c1ncn2[C@@H]1O[C@H](COP(=O)(O)OP(=O)(O)OP(=O)(O)O)[C@@H](O)[C@H]1O [ATP] | autophosphorylation, SDS-PAGE with Pro-Q Diamond stain [1]: EPR3a and EPR3 are able to autophosphorylate; autophosphorylation, SDS-PAGE with Pro-Q Diamond stain [2]: EPR3a and EPR3 are able to autophosphorylate |
| ~670 | OC[C@H]1O[C@@H](O[C@@H]2[C@@H](O)[C@H](O[C@@H]3[C@@H](O)[C@H](O[C@@H]4[C@@H](O)[C@H](O[C@@H]5[C@@H](O)[C@H](O[C@H]6[C@H](O)[C@@H](CO)OC(O)[C@@H]6O)O[C@H](CO)[C@H]5O)O[C@H](CO)[C@H]4O)O[C@H](CO)[C@H]3O)O[C@H](CO)[C@H]2O)[C@H](O)[C@@H](O)[C@@H]1O (some centres unmarked) [laminarihexaose] | – |
